In brackets after ≈: the same amount, converted by molar mass. Values belong to the molecule of their own block, whether it stands above or below them.
Columns and labels:
[1] = Antioxidant activity assessed as DPPH radical scavenging activity incubated for 30 mins under dark condition; type: functional
[2] = tested on: HepG2 2.2.15; assay: Antiproliferative activity against human HepG2.2.15 cells assessed as cell growth inhibition by MTT assay; type: functional, cell-based
[3] = tested on: Rhizoctonia solani; assay: Antifungal activity against Rhizoctonia solani assessed as inhibition of fungal growth at 10 ug/ml relative to control; type: functional
[4] = tested on: HEp-2; assay: Cytotoxicity against human HEp-2 cells assessed as cell growth inhibition by MTT assay; type: functional, cell-based
[5] = tested on: HepG2; assay: Cytotoxicity against human HepG2 cells assessed as cell growth inhibition by MTT assay; type: functional, cell-based
[6] = tested on: JeKo-1; assay: Cytotoxicity against human JeKo-1 cells assessed as cell growth inhibition by MTT assay; type: functional, cell-based
[7] = tested on: Vibrio splendidus; assay: Antibacterial activity against Vibrio splendidus as bacterial growth inhibition; type: functional, organism-based
[8] = tested on: Staphylococcus aureus; assay: Antibacterial activity against Staphylococcus aureus ATCC 25923 assessed as bacterial growth inhibition; type: functional, organism-based
[9] = molecular target: Prostaglandin G/H synthase 2 (Homo sapiens) (UniProt P35354); assay: Inhibition of COX2 (unknown origin) at 20 nM relative to control
Chain of Prostaglandin G/H synthase 2 (Homo sapiens) (P35354 whole entry, looked up): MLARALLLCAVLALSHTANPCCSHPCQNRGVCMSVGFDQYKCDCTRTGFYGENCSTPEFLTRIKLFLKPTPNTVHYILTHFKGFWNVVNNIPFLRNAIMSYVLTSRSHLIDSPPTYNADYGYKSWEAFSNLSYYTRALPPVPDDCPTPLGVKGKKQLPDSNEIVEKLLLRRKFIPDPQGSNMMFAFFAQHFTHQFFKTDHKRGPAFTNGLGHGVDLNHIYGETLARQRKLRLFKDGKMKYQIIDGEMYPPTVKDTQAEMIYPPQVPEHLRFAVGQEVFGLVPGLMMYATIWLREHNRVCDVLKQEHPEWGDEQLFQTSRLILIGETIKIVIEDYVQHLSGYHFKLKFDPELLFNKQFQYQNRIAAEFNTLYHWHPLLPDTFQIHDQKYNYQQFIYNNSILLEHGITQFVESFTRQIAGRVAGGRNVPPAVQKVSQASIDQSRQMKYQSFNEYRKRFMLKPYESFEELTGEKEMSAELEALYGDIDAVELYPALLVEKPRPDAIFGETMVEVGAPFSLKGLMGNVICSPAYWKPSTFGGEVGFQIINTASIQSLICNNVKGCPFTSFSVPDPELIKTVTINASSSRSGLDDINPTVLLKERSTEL

[10] = Antioxidant activity assessed as free radical scavenging activity by DPPH assay; type: functional
[11] = tested on: Pseudopestalotiopsis theae; assay: Antifungal activity Pestalotiopsis theae assessed as fungal growth inhibition per disc measured after 7 days by paper disc dilution method; type: functional, organism-based
[12] = tested on: Vibrio harveyi; assay: Antibacterial activity against Vibrio harveyi assessed as cell growth inhibition; type: functional
[13] = tested on: Aeromonas hydrophila; assay: Antibacterial activity against Aeromonas hydrophila assessed as cell growth inhibition; type: functional
[14] = tested on: Vibrio anguillarum; assay: Antibacterial activity against Vibrio anguillarum assessed as cell growth inhibition; type: functional

Structure (SMILES): Cc1oc2cc3cc(O)cc(O)c3c(O)c2c(=O)c1C
- inhibition at 10 µg/mL [3]: 50.2%

Structure (SMILES): COC(=O)c1cc(O)cc2oc3cc(C)c(O)cc3c(=O)c12
- IC50 [4]: 8 µg/mL (≈ 26.6 µM)
- IC50 [5]: 9 µg/mL (≈ 30 µM)

Structure (SMILES): CC1=CCC[C@@]2(C)C=C3OC(=O)C(CO)=C3C[C@H]12
- IC50 [6]: 8.4 µM

Structure (SMILES): COC(=O)/C=C/C1=CC(=O)CC1O (centres undefined)
- IC50 [11]: 125 µg

Continued, in another order:

- IC50 [1]: 25.7 µM
Structure (SMILES): COc1c(O)c2c(c(O)c1CO)C(=O)OCC2

- IC50 [2]: 4.63 µM
Structure (SMILES): C[C@@H](O)Cc1cc(O)c2c(c1)C(=O)c1c(O)c(O)cc(O)c1C2=O

- inhibition [9]: 76.5%
Structure (SMILES): CC(C)=CCc1cc(C[C@@]2(C(=O)O)OC(=O)C(OC(C)(C)[C@@H](O)Cc3cc(C[C@@]4(C(=O)O)OC(=O)C(O)=C4c4ccc(O)cc4)ccc3O)=C2c2ccc(O)cc2)ccc1O
- IC50 [7]: 3.7 µM
- IC50 [8]: 1.3 µM

- IC50 [10]: 1.23 µg/mL (≈ 3.86 µM)
Structure (SMILES): COc1cc(O)cc(C2OC(=O)c3c(O)cc(C)c(O)c32)c1O (centres undefined)

- MIC [12]: 8 µg/mL (≈ 39.6 µM)
- MIC [13]: 8 µg/mL (≈ 39.6 µM)
- MIC [14]: 8 µg/mL (≈ 39.6 µM)
Structure (SMILES): C[C@H](O)/C=C1/C(=O)O[C@H]([C@@H](C)O)[C@@H]1O

Reference: ChEMBL document CHEMBL5107956, “Natural products from mangrove sediments-derived microbes: Structural diversity, bioactivities, biosynthesis, and total synthesis” (Eur J Med Chem, 2022)
